Results published in US20180368404A1, “3-PYRIDYL HETEROBICYCLIC COMPOUND FOR CONTROLLING INVERTEBRATE PESTS” (BASF SE, priority 2014, published 2018).

What was measured:
Format in all cases: in vivo
[1] = tested on: Cowpea Aphid (Aphis craccivora); assay: Cowpea aphid spray test on potted cowpea plants; details: population reduction assessed after 24, 72 and 120 hours, read-out: mortality in comparison with untreated controls
Method: If not otherwise specified the test solutions were prepared as follows:
The active compound was dissolved at the desired concentration in a mixture of 1:1 (vol:vol) distilled water: acetone. The test solution was prepared at the day of use and in general at concentrations of ppm (wt/vol).
Potted cowpea plants colonized with 100-150 aphids of various stages were sprayed after the pest population had been recorded. Population reduction was assessed after 24, 72, and 120 hours.

[2] = tested on: Silverleaf Whitefly (Bemisia argentifolii, Adult); assay: Silverleaf whitefly test on sprayed cotton plants; details: 72 h, 3 days after treatment, read-out: mortality in comparison with untreated controls
Method: (§1) The active compounds were formulated in cyclohexanone as a 10,000 ppm solution supplied in 1.3 ml ABgene® tubes. These tubes were inserted into an automated electrostatic sprayer equipped with an atomizing nozzle and they served as stock solutions for which lower dilutions were made in 1:1 (vol:vol) water: acetone. A nonionic surfactant (Kinetic®) was included in the solution at a volume of 0.01% (v/v).
Cotton plants at the cotyledon stage (one plant per pot) were sprayed by an automated electrostatic plant sprayer equipped with an atomizing spray nozzle. The plants were dried in the sprayer fume hood and then removed from the sprayer. Each pot was placed into a plastic cup and 10 to 12 whitefly adults (approximately 3-5 days […]) were introduced. The insects were collected using an aspirator and 0.6 cm, nontoxic Tygon® tubing (R-3603) connected to a barrier pipette tip. The tip, containing the collected insects, was then gently inserted into the soil containing the treated plant, allowing insects to crawl out of the tip to reach the foliage for feeding. Cups were covered with a reusable screened lid (150-micron mesh polyester screen PeCap from Tetko, Inc.). Test plants were maintained in a growth room at 25° C. and 20-40% relative humidity for 3 days, avoiding direct exposure to fluorescent light (24 hour photoperiod) to prevent trapping of heat inside the cup. Mortality was assessed 3 days after treatment, compared to untreated control plants.

[3] = tested on: Vetch Aphid (Megoura viciae); assay: Vetch aphid bean leaf disk microtiter test; details: foliar, 144 h, leaf disks sprayed with 2.5 μl, 6 days, read-out: mortality in comparison with untreated controls
Method: The active compounds were formulated in 3:1 (vol:vol) water: DMSO with different concentrations of formulated compounds.
Bean leaf disks were placed into microtiterplates filled with 0.8% agar-agar and 2.5 ppm OPUS™. The leaf disks were sprayed with 2.5 μl of the test solution and 5 to 8 adult aphids were placed into the microtiter plates which were then closed and kept at 23±1° C. and 50±5% relative humidity under fluorescent light for 6 days. Mortality was assessed on the basis of vital, reproduced aphids. Aphid mortality and fecundity was then visually assessed.

[4] = tested on: Green Peach Aphid (Myzus persicae); assay: Green peach aphid spray test on infested bell pepper plants; details: 120 h, after 5 days, read-out: mortality in comparison with untreated controls
Method: as §1
Bell pepper plants at the first true-leaf stage were infested prior to treatment by placing heavily infested leaves from the main colony on top of the treatment plants. Aphids were allowed to transfer overnight to accomplish an infestation of 30-50 aphids per plant and the host leaves were removed. The infested plants were then sprayed by an automated electrostatic plant sprayer equipped with an atomizing spray nozzle. The plants were dried in the sprayer fume hood, removed, and then maintained in a growth room under fluorescent lighting in a 24 hour photoperiod at 25° C. and 20-40% relative humidity. Aphid mortality on the treated plants, relative to mortality on untreated control plants, was determined after 5 days.

[5] = tested on: Cotton Aphid (Aphis gossypii, Mixed Life Stages); assay: Cotton aphid spray test on infested cotton plants; details: 120 h, after 5 days, read-out: mortality in comparison with untreated controls
Method: as §1
Cotton plants at the cotyledon stage were infested with aphids prior to treatment by placing a heavily infested leaf from the main aphid colony on top of each cotyledon. Aphids were allowed to transfer overnight to accomplish an infestation of 80-100 aphids per plant and the host leaf was removed. The infested plants were then sprayed by an automated electrostatic plant sprayer equipped with an atomizing spray nozzle. The plants were dried in the sprayer fume hood, removed from the sprayer, and then maintained in a growth room under fluorescent lighting in a 24-hr photoperiod at 25° C. and 20-40% relative humidity. Aphid mortality on the treated plants, relative to mortality on untreated control plants, was determined after 5 days.

[6] = tested on: Orchid thrips (Dichromothrips corbetti); assay: Orchid thrips petal dip test; details: petals dipped, after 72 hours, read-out: mortality in comparison with untreated controls
Method: The active compounds were formulated as a 1:1 (vol:vol) water: acetone solution. Surfactant (Alkamuls EL 620) was added at the rate of 0.1% (vol/vol). Vanda orchids petals were cleaned, washed and air dried prior to spraying. Petals were dipped into the test solution for 3 seconds, air dried, placed inside a resealable plastic and inoculated with 20 adults. The treated petals were kept inside the […] room at 28-29° C. and relative humidity of 50-60%. Percent mortality was recorded after 72 hours.

COc1ccc2nc(-c3cccnc3)oc2c1 [I-1, 6-methoxy-2-(3-pyridyl)-1,3-benzoxazole]
≥ 75%: mortality at 500 ppm [1]

COc1ccc2nn(-c3cccnc3)cc2c1 [I-B4, 5-methoxy-2-(3-pyridyl)indazole]
≥ 75%: mortality at 300 ppm [2]

CCOCCSc1ccc2nn(-c3cccnc3)cc2c1 [I-B5, 5-(2-ethoxyethylsulfanyl)-2-(3-pyridyl)indazole]
≥ 75%: mortality at 800 ppm [3] | mortality at 500 ppm [1]

CCOCCSc1cccc2nn(-c3cccnc3)cc12 [I-C1, 4-(2-ethoxyethylsulfanyl)-2-(3-pyridyl)indazole]
≥ 75%: mortality at 300 ppm [4] | mortality at 800 ppm [3] | mortality at 300 ppm [5] | mortality at 500 ppm [1] | mortality at 300 ppm [2]

CCOCCSc1ccc2nn(-c3cccnc3)cc2n1 [I-D16, 5-(2-ethoxyethylsulfanyl)-2-(3-pyridyl)pyrazolo[4,3-b]pyridine]
≥ 75%: mortality at 300 ppm [4] | mortality at 800 ppm [3] | mortality at 300 ppm [5]

CCOCC[S+]([O-])c1ccc2nn(-c3cccnc3)cc2n1 (centres unmarked) [I-D39, 5-(2-ethoxyethylsulfinyl)-2-(3-pyridyl)pyrazolo[4,3-b]pyridine]
≥ 75%: mortality at 300 ppm [4] | mortality at 800 ppm [3] | mortality at 300 ppm [5] | mortality at 300 ppm [2]

CCOCCS(=O)(=O)c1ccc2nn(-c3cccnc3)cc2n1 [I-D46, 5-(2-ethoxyethylsulfonyl)-2-(3-pyridyl)pyrazolo[4,3-b]pyridine]
≥ 75%: mortality at 300 ppm [4] | mortality at 800 ppm [3] | mortality at 300 ppm [5] | mortality at 300 ppm [2]

COc1ccc2nn(-c3cccnc3)cc2n1 [I-D57, 5-methoxy-2-(3-pyridyl)pyrazolo[4,3-b]pyridine]
≥ 75%: mortality at 300 ppm [4] | mortality at 800 ppm [3] | mortality at 300 ppm [5] | mortality at 500 ppm [1] | mortality at 300 ppm [2]

CC(C)(COc1ccc2nn(-c3cccnc3)cc2n1)S(C)(=O)=O [I-D59, 5-(2-methyl-2-methylsulfonyl-propoxy)-2-(3-pyridyl)pyrazolo[4,3-b]pyridine]
≥ 75%: mortality at 300 ppm [4] | mortality at 500 ppm [6] | mortality at 800 ppm [3] | mortality at 300 ppm [5] | mortality at 500 ppm [1] | mortality at 300 ppm [2]

FC(F)(F)COc1ccc2nc(-c3cccnc3)cn2n1 [I-E14, 2-(3-pyridyl)-6-(2,2,2-trifluoroethoxy)imidazo[1,2-b]pyridazine]
≥ 75%: mortality at 300 ppm [4] | mortality at 800 ppm [3] | mortality at 300 ppm [5] | mortality at 300 ppm [2]

COc1ccc2nc(-c3cccnc3)sc2n1 [I-H4, 5-methoxy-2-(3-pyridyl)thiazolo[5,4-b]pyridine]
≥ 75%: mortality at 500 ppm [1]

COc1ccc2nc(-c3cccnc3)oc2n1 [I-K1, 5-methoxy-2-(3-pyridyl)oxazolo[5,4-b]pyridine]
≥ 75%: mortality at 300 ppm [4] | mortality at 800 ppm [3] | mortality at 300 ppm [5] | mortality at 500 ppm [1] | mortality at 300 ppm [2]
